Read-outs that look alike come from different tables or passages of the source.
How the values were obtained:
[1] = system: HepG2-A16-CD81EGFP cells; settings: for IC50: read-out: Tox_IC50, HepG2 cytotoxicity
[2] = system: Plasmodium berghei (Pb-Luc) exoerythrocytic-stage parasites; settings: for IC50: read-out: PbLuc_IC50
[3] = sheet 2nd round, maximal inhibition in dose response
[4] = first series of columns, fraction of control
[5] = second series of columns (replicate), fraction of control
[6] = 2nd round, maximal inhibition in dose series

C[C@H]1CN([C@@H](C)CO)C(=O)CCCn2cc(nn2)CO[C@H]1CN(C)C(=O)Nc1cccc2ccccc12 [BRD-K54628954-001-01-2]
IC50 ([1]; sheet 2nd round): > 10 µM
Tox_max_inhibition (%) [1, 3]: 1.76%
normalized signal at concentration 0.000508053 [2, 4]: 0.8794
normalized signal at concentration 0.00152416 [2, 4]: 0.9359
normalized signal at concentration 0.00457247 [2, 4]: 0.9054
normalized signal at concentration 0.0137174 [2, 4]: 0.8762
normalized signal at concentration 0.0411523 [2, 4]: 0.8388
normalized signal at concentration 0.123457 [2, 4]: 0.9562
normalized signal at concentration 0.37037 [2, 4]: 0.9801
normalized signal at concentration 1.11111 [2, 4]: 0.9783
normalized signal at concentration 3.33333 [2, 4]: 0.874
normalized signal at concentration 10 [2, 4]: 0.9112
IC50 ([2]; sheet 2nd round, Pb-Luc exoerythrocytic stage, 10-point dose response, top concentration 10): > 10 µM
normalized signal at concentration 0.000508053 [2, 5]: 0.8292
normalized signal at concentration 0.00152416 [2, 5]: 0.8809
normalized signal at concentration 0.00457247 [2, 5]: 0.7545
normalized signal at concentration 0.0137174 [2, 5]: 0.9599
normalized signal at concentration 0.0411523 [2, 5]: 0.9428
normalized signal at concentration 0.123457 [2, 5]: 0.9557
normalized signal at concentration 0.37037 [2, 5]: 0.8087
normalized signal at concentration 1.11111 [2, 5]: 0.9126
normalized signal at concentration 3.33333 [2, 5]: 0.9018
normalized signal at concentration 10 [2, 5]: 1.015
PbLuc_max_inhibition (%) [2, 3]: 25%

C/C=C/c1ccc([C@H]2[C@@H](CO)N(CC3CCCCC3)[C@@H]2CNC(C)C)cc1 [BRD-K19633528-001-01-3]
Tox_max_inhibition (%) [1, 6]: 16%
IC50 ([1]; 2nd round, unit inferred): > 10 µM
PbLuc_max_inhibition (%) [2, 6]: 58%
normalized signal at 0.000508053 (first series) ([2]; concentration 0.000508053, first replicate series, fraction of control): 1
normalized signal at 0.000508053 (second series) ([2]; concentration 0.000508053, second replicate series, fraction of control): 0.834
normalized signal at 0.00152416 (first series) ([2]; concentration 0.00152416, first replicate series, fraction of control): 0.9222
normalized signal at 0.00152416 (second series) ([2]; concentration 0.00152416, second replicate series, fraction of control): 0.7558
normalized signal at 0.00457247 (first series) ([2]; concentration 0.00457247, first replicate series, fraction of control): 0.9507
normalized signal at 0.00457247 (second series) ([2]; concentration 0.00457247, second replicate series, fraction of control): 1.046
normalized signal at 0.0137174 (first series) ([2]; concentration 0.0137174, first replicate series, fraction of control): 0.9718
normalized signal at 0.0137174 (second series) ([2]; concentration 0.0137174, second replicate series, fraction of control): 0.826
normalized signal at 0.0411523 (first series) ([2]; concentration 0.0411523, first replicate series, fraction of control): 1.123
normalized signal at 0.0411523 (second series) ([2]; concentration 0.0411523, second replicate series, fraction of control): 1.151
normalized signal at 0.123457 (first series) ([2]; concentration 0.123457, first replicate series, fraction of control): 1.141
normalized signal at 0.123457 (second series) ([2]; concentration 0.123457, second replicate series, fraction of control): 0.8556
normalized signal at 0.37037 (first series) ([2]; concentration 0.37037, first replicate series, fraction of control): 1.177
normalized signal at 0.37037 (second series) ([2]; concentration 0.37037, second replicate series, fraction of control): 1.086
normalized signal at 1.11111 (first series) ([2]; concentration 1.11111, first replicate series, fraction of control): 1.183
normalized signal at 1.11111 (second series) ([2]; concentration 1.11111, second replicate series, fraction of control): 0.9808
normalized signal at 3.33333 (first series) ([2]; concentration 3.33333, first replicate series, fraction of control): 1.3301
normalized signal at 3.33333 (second series) ([2]; concentration 3.33333, second replicate series, fraction of control): 0.9519
normalized signal at 10 (first series) ([2]; concentration 10, first replicate series, fraction of control): 0.5856
normalized signal at 10 (second series) ([2]; concentration 10, second replicate series, fraction of control): 0.4223
IC50 ([2]; 2nd round, Broad DOS compounds, unit not printed (dose series head 10 to 0.000508053)): > 10 µM

Source: paper PMC4890880 (ACS infectious diseases, 2016)
